Data as given in patent US9636021B2, “Flavonoid compounds of low toxicity for biological imaging applications” (The University of Akron, priority 2014, dated 2017).

Columns and labels:
[1] = absorbance and fluorescence spectra in DMSO; format: physicochemical
From the text: The absorbance and fluorescence spectra of compounds 1-6 in dimethyl sulfoxide (DMSO) were investigated and the results are in Table 1.

[2] = biological target: bovine serum albumin (BSA) (Bos taurus, UniProt P02769); assay: fluorescence turn-on with BSA in PBS buffer; format: binding; details: for detection limit (10% increase in fluorescence emission) / visual recognizable detection limit (S/N above 3:1): BSA; for F(+)/F(−) fluorescence intensity with BSA / without BSA: BSA 1.0 mg/ml; for F(+)/F(−) fluorescence intensity with BSA / without BSA / λabs(+) / λem(+) / λabs(−) / λem(−): 10 μM dye; for λabs(+) / λem(+): with BSA 1.0 mg/ml; for λabs(−) / λem(−): without BSA
Description: In the aqueous buffer (0.5% DMSO, 10 mM of PBS, pH=7.4), the BSA binding-induced fluorescence turn-on was so large that it could be easily seen by naked eye. […] The intramolecular charge transfer along the D-A conjugated backbone plays a very important role in the environment-sensitivity of the flavone. All the evidence consistently pointed to the flavone dye entering the hydrophobic site of BSA.
Generally, the detection limit can be defined as the analyte concentration at which a 10% increase in fluorescence emission can be measured.
Therefore, the detection limits of compounds 1-6 were 2.6, 0.14, 0.59, 0.09, 14, and 3.4 μg/mL, respectively. For Off/On type fluorescent sensor, the Signal-to-Noise (S/N) ratio above 3:1 is considered reliable for visual evaluation. The visual recognizable detection limits of compounds 1-6 were calculated as 78, 4.2, 17.7, 2.7, 420, and 102 μg/mL, respectively. The reference range for serum albumin concentration in human blood plasma is approximately 35-50 mg/mL. Even in fish, the concentration of serum albumins can reach 0.5-5 mg/mL. The detection limits of the compounds were much lower than serum albumin concentration, indicating the capability for actual blood sample testing.

[3] = fluorescence quenching by water; format: physicochemical
From the text: Upon excitation via photon irradiation, the dipole moment increased dramatically because of the charge transfer from D-A structure in compound 1. An increase in the solvent polarity could relax the excited molecules more efficiently, thus decreasing the energy of the excited state of fluorophore and resulting in a red-shifted emission. […] The fluorescence of compound 1 was nearly 100% quenched by water due to intermolecular electron or proton transfer. Non-fluorescence in water raises the possibility of eliminating the washing process in the protein detection procedure, since the free dye molecules gives negligible background signal in water.

[4] = test system: serum albumin in monkey serum; assay: fluorescence response to monkey serum; format: binding; details: 10 μM in 1 mL PBS
Description: FIG. 18 provides a chart of fluorescence spectra changes and of compound 4 (10 μM, in 1 mL of PBS buffer solution) upon addition of different volume of monkey serum;
FIG. 19 provides a chart of fluorescent intensities (λ=505 nm) of compound 4 (10 μM, in 1 mL of PBS buffer solution) upon addition of different volume of monkey serum;
Serum albumin is known as the most abundant protein in blood serum. The probe's fluorescence response to serum albumin in real blood samples would be considered as an ideal sensing tool. In this example, 10 μM of compound 4 was dissolved in 1 mL of PBS buffer as a test solution. […] The detection limit (S/N>3) for monkey serum was calculated as 0.03 μL.

[5] = biological target: BSA, human serum albumin (HSA) (Bos taurus, UniProt P02769); assay: wash-free staining of proteins in SDS-PAGE gel; format: binding; details: 2 hours staining, 10 mM dye, 0.3% SDS, no washing
Description: (§1) FIG. 20 provides fluorescence images of several proteins in electrophoresis gel stained by compound 4 before and after washing 1. BSA at 0.1 μg; 2. BSA at 1 μg; 3. BSA at 10 μg; 4. BSA at 100 μg; 5. HSA at 10 μg; 6. Fibrinogen at 10 μg; 7. Lysozyme at 10 μg; 8. Trypsin at 10 μg;
(§2) Various proteins were run on the 1-D SDS-PAGE minigels with running buffer (25 mM Tris, 192 mM glycine, 0.1% SDS pH 8.3) under 100 volts for 1.5 hrs. The minigels were then placed in the dye solution (10 mM of compound 4, 0.3% SDS, and AcOH/DMSO/H2O=5:10:85). […] Therefore, the discovered protein-staining reagent had the following advantages: (1) low interference of SDS to fluorescence, thereby eliminating the pretreatment; (2) very weak fluorescent in water and gels to eliminate the need for the washing process; (3) strong interaction with the proteins (serum albumin) to reduce the staining time; (4) a high signal-to-noise (S/N) ratio for the high contrast ratio of images.

[6] = test system: BSA, human serum albumin (HSA); assay: wash-free staining of proteins in SDS-PAGE gel; format: binding; details: BSA, HSA vs fibrinogen, lysozyme, trypsin, 10 μg
Description: as §1, §2

Sequence of bovine serum albumin (BSA) (P02769 25-607): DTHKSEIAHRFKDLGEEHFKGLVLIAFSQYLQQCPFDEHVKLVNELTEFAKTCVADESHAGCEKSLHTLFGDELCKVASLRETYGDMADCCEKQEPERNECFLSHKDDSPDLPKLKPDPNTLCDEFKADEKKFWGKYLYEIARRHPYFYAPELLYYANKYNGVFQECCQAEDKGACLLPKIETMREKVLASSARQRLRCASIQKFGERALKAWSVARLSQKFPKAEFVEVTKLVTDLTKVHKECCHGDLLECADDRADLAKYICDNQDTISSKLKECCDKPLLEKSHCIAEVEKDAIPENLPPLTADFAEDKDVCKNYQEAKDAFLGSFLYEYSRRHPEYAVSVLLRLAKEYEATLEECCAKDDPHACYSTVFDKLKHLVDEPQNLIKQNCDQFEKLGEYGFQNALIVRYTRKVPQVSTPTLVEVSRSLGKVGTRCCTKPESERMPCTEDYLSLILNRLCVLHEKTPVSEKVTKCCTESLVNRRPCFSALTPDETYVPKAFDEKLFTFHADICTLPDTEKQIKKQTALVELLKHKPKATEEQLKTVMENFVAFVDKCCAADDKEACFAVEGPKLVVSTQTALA
Sequence of BSA, human serum albumin (HSA) (Bos taurus, UniProt P02769) (P02769 25-607): as above

Φ [1] [%] | λabs [1] [nm] | detection limit (10% increase in fluorescence emission) [2] [µg/mL] | visual recognizable detection limit (S/N above 3:1) [2] [µg/mL] | F(+)/F(−) fluorescence intensity with BSA / without BSA ([2]; 10 mM PBS, 0.5% DMSO, pH 7.4) | λabs(+) ([2]; 10 mM PBS, 0.5% DMSO, pH 7.4) [nm] | λem(+) ([2]; 10 mM PBS, 0.5% DMSO, pH 7.4) [nm] | λabs(−) ([2]; 10 mM PBS, 0.5% DMSO, pH 7.4) [nm] | λem(−) ([2]; 10 mM PBS, 0.5% DMSO, pH 7.4) [nm] | fluorescence quenched by water [3] [%] | λem [1] [nm] | fluorescence in the absence of BSA ([2]; aqueous buffer, 0.5% DMSO, 10 mM PBS, pH 7.4) | amount of BSA clearly observed in gel under a UV lamp [5] [µg] | SMILES | detection limit (S/N>3) for monkey serum [4] [µL] | fluorescence intensity enhancement at 505 nm ([4]; 25 μL of serum sample) [fold] | selectivity of protein staining in gel [6]
10.0 | 403 | 2.6 | 78 | 38 | 416 | 556 | 403 | 560 | ~100 |  |  |  | CN(C)c1ccc(-c2oc3ccccc3c(=O)c2O)cc1 [compound 1, 2-(4-(dimethylamino)phenyl)-3-hydroxy-4H-chromen-4-one] |  |  | 
37.6 | 390 | 0.09 | 2.7 | 1100 | 398 | 484 | 398 | 490 |  | 504 | almost no fluorescence | ~1 | COc1c(-c2ccc(N(C)C)cc2)oc2ccc(C)cc2c1=O [compound 4, 2-(4-(dimethylamino)phenyl)-3-methoxy-6-methyl-4H-chromen-4-one] | 0.03 | 135 | serum albumin proteins were selectively stained
